Source: patent US9682995B2, “Amino-substituted isothiazoles” (BAYER PHARMA AKTIENGESELLSCHAFT, priority 2013, dated 2017)

Legend:
CDK2/CycE = CDK2/CycE (Homo sapiens (Human), UniProt P24941); experiment: CDK2/CycE kinase assay (TR-FRET); format: biochemical; conditions: 10 μM ATP; read-out: CDK2 avg (IC50 [mol/l])
From the text: CDK2/CycE-inhibitory activity of compounds of the present invention was quantified employing the CDK2/CycE TR-FRET assay as described in the following paragraphs.
Recombinant fusion proteins of GST and human CDK2 and of GST and human CycE, expressed in insect cells (Sf9) and purified by Glutathion-Sepharose affinity chromatography, were purchased from ProQinase GmbH (Freiburg, Germany). As substrate for the kinase reaction biotinylated peptide biotin-Ttds-YISPLKSPYKISEG (C-terminus in amid form) was used which can be purchased e.g. form the company JERINI peptide technologies (Berlin, Germany).
For the assay 50 nl of a 100 fold concentrated solution of the test compound in DMSO was pipetted into a black low volume 384 well microtiter plate (Greiner Bio-One, Frickenhausen, Germany), 2 μl of a solution of CDK2/CycE in aqueous assay buffer [50 mM Tris/HCl pH 8.0, 10 mM MgCl2, 1.0 mM dithiothreitol, 0.1 mM sodium ortho-vanadate, 0.01% (v/v) Nonidet-P40 (Sigma)] were added and the mixture was incubated for 15 min at 22° C. to allow pre-binding of the test compounds to the enzyme before the start of the kinase reaction. Then the kinase reaction was started by the addition of 3 μl of a solution of adenosine-tri-phosphate (ATP, 16.7 μM=>final conc. in the 5 μl assay volume is 10 μM) and substrate (1.25 μM=>final conc. in the 5 μl assay volume is 0.75 μM) in assay buffer and the resulting mixture was incubated for a reaction time of 25 min at 22° C. The concentration of CDK2/CycE was adjusted depending of the activity of the enzyme lot and was chosen appropriate to have the assay in the linear range, typical concentrations were in the range of 130 ng/ml. The reaction was stopped by the addition of 5 μl of a solution of TR-FRET detection reagents (0.2 μM streptavidine-XL665 [Cisbio Bioassays, Codolet, France] and 1 nM anti-RB(pSer807/pSer811)-antibody from BD Pharmingen [#558389] and 1.2 nM LANCE EU-W1024 labeled anti-mouse IgG antibody [Perkin-Elmer, product no. AD0077, as an alternative a Terbium-cryptate-labeled anti-mouse IgG antibody from Cisbio Bioassays can be used]) in an aqueous EDTA-solution (100 mM EDTA, 0.2% (w/v) bovine serum albumin in 100 mM HEPES/NaOH pH 7.0).
The resulting mixture was incubated 1 h at 22° C. to allow the formation of complex between the phosphorylated biotinylated peptide and the detection reagents. Subsequently the amount of phosphorylated substrate was evaluated by measurement of the resonance energy transfer from the Eu-chelate to the streptavidine-XL. Therefore, the fluorescence emissions at 620 nm and 665 nm after excitation at 350 nm was measured in a TR-FRET reader, e.g. a Rubystar (BMG Labtechnologies, Offenburg, Germany) or a Viewlux (Perkin-Elmer). The ratio of the emissions at 665 nm and at […] was taken as the measure for the amount of phosphorylated substrate. The data were normalised (enzyme reaction without inhibitor=0% inhibition, all other assay components but no enzyme=100% inhibition).

HeLa = experiment: Proliferation assay (crystal violet), HeLa; format: cell-based; conditions: Homo sapiens, 96 h, 4 days, read-out: Inhibition of proliferation IC50 HeLa
Experimental: Cultivated tumor cells (cells were ordered from ATCC, except HeLa-MaTu and HeLa-MaTu-ADR, which were ordered from EPO-GmbH, Berlin) were plated at a density of 1000 to 5000 cells/well, depending on the growth rate of the respective cell line, in a 96-well multititer plate in 200 μL of their respective growth medium supplemented 10% fetal calf serum. After 24 hours, the cells of one plate (zero-point plate) were stained with crystal violet (see below), while the medium of the other plates was replaced by fresh culture medium (200 μl), to which the test substances were added in various concentrations (0 μM, as well as in the range of 0.001-10 μM; the final concentration of the solvent dimethyl sulfoxide was 0.5%). The cells were incubated for 4 days in the presence of test substances. Cell proliferation was determined by staining the cells with crystal violet: the cells were fixed by adding 20 μl/measuring point of an 11% glutaric aldehyde solution for 15 minutes at room temperature. After three washing cycles of the fixed cells with water, the plates were dried at room temperature. The cells were stained by adding 100 μl/measuring point of a 0.1% crystal violet solution (pH 3.0). After three washing cycles of the stained cells with water, the plates were dried at room temperature. The dye was dissolved by adding 100 μl/measuring point of a 10% acetic acid solution. Absorption was determined by photometry at a wavelength of 595 nm. The change of cell number, in percent, was calculated by normalization of the measured values to the absorption values of the zero-point plate (=0%) and the absorption of the untreated (0 μm) cells (=100%). The IC50 values were determined by means of a 4 parameter fit.

`Cc1nsc(Nc2cncc(C(=O)N3CCOCC3)n2)c1C(=O)Nc1ccc(F)c(F)c1` [Example 107, N-(3,4-Difluorophenyl)-3-methyl-5-{[6-(morpholin-4-ylcarbonyl)pyrazin-2-yl]amino}-1,2-thiazole-4-carboxamide] showed an IC50 (CDK2/CycE) of over 20 µM and an IC50 (HeLa) of 4900 nM.

`COc1ccc(NC(=O)c2c(C)nsc2Nc2nc3c(C(F)(F)F)cccc3s2)cc1F` [Example 47, N-(3-Fluoro-4-methoxyphenyl)-3-methyl-5-{[4-(trifluoromethyl)-1,3-benzothiazol-2-yl]amino}-1,2-thiazole-4-carboxamide] gave an IC50 (CDK2/CycE) of over 20 µM and an IC50 (HeLa) of 370 nM.

With `CCc1ccccc1NC(=O)c1c(C)nsc1Nc1nc(C)nc2sccc12` [Example 38, N-(2-Ethylphenyl)-3-methyl-5-[(2-methylthieno[2,3-d]pyrimidin-4-yl)amino]-1,2-thiazole-4-carboxamide] the IC50 (CDK2/CycE) was over 20 µM and the IC50 (HeLa) was 5300 nM.

For `COc1ccc(NC(=O)c2c(C)nsc2Nc2ncccc2C#N)cn1` [Example 36, 5-[(3-Cyanopyridin-2-yl)amino]-N-(6-methoxypyridin-3-yl)-3-methyl-1,2-thiazole-4-carboxamide], the IC50 (CDK2/CycE) was over 20 µM and the IC50 (HeLa) was 9900 nM.

For `Cc1nsc(Nc2nc3c(C(F)(F)F)cccc3s2)c1C(=O)Nc1ccc(Cl)c(Cl)c1` [Example 102, N-(3,4-Dichlorophenyl)-3-methyl-5-{[4-(trifluoromethyl)-1,3-benzothiazol-2-yl]amino}-1,2-thiazole-4-carboxamide], the IC50 (CDK2/CycE) was over 20 µM and the IC50 (HeLa) was 7300 nM.

`CCc1ccccc1NC(=O)c1c(C)nsc1Nc1nc2ccccc2nc1C` [Example 21, N-(2-Ethylphenyl)-3-methyl-5-[(3-methylquinoxalin-2-yl)amino]-1,2-thiazole-4-carboxamide] was tested, and the IC50 (CDK2/CycE) was over 20 µM and the IC50 (HeLa) was over 10000 nM.

Molecule `COc1ccc(NC(=O)c2c(C)nsc2Nc2cnc3cccc(C)c3n2)cn1` [Example 22, N-(6-methoxypyridin-3-yl)-3-methyl-5-[(8-methylquinoxalin-2-yl)amino]-1,2-thiazole-4-carboxamide] has an IC50 (CDK2/CycE) of over 20 µM and an IC50 (HeLa) of 1300 nM.

`Cc1nsc(Nc2ccc(C#N)cn2)c1C(=O)Nc1ccc(OC(C)C)nc1` [Example 110, 5-[(5-Cyanopyridin-2-yl)amino]-N-(6-isopropoxyridin-3-yl)-3-methyl-1,2-thiazole-4-carboxamide] was tested, and the IC50 (CDK2/CycE) was over 20 µM and the IC50 (HeLa) was 1500 nM.

`CNC(=O)c1ccnc(Nc2snc(C)c2C(=O)Nc2ccc(F)c(F)c2)c1` [Example 108, 2-({4-[(3,4-Difluorophenyl)-carbamoyl]-3-methyl-1,2-thiazol-5-yl}amino)-N-methyliso-nicotinamide] was tested, and the IC50 (CDK2/CycE) was over 20 µM and the IC50 (HeLa) was 10000 nM.

With `COc1ccc(NC(=O)c2c(C)nsc2Nc2nccnc2C#N)cn1` [Example 24, 5-[(3-Cyanopyrazin-2-yl)amino]-N-(6-methoxypyridin-3-yl)-3-methyl-1,2-thiazole-4-carboxamide] the IC50 (CDK2/CycE) was over 20 µM and the IC50 (HeLa) was over 10000 nM.

Work on `CCOC(=O)c1cnc(Nc2snc(C)c2C(=O)Nc2ccc(OC)nc2)s1` [Example 29, Ethyl 2-({4-[(6-methoxypyridin-3-yl)carbamoyl]-3-methyl-1,2-thiazol-5-yl}amino)-1,3-thiazole-5-carboxylate] yielded an IC50 (CDK2/CycE) of over 20 µM and an IC50 (HeLa) of 2800 nM.

With `CCc1ccccc1NC(=O)c1c(C)nsc1Nc1cc(C(F)(F)F)ccn1` [Example 18, N-(2-Ethylphenyl)-3-methyl-5-{[4-(trifluoromethyl)pyridin-2-yl]amino}-1,2-thiazole-4-carboxamide] the IC50 (CDK2/CycE) was over 20 µM and the IC50 (HeLa) was 7500 nM.

Molecule `Cc1nsc(Nc2cc(C#N)ccn2)c1C(=O)Nc1ccc(F)c(F)c1` [Example 27, 5-[(4-Cyanopyridin-2-yl)amino]-N-(3,4-difluorophenyl)-3-methyl-1,2-thiazole-4-carboxamide] has an IC50 (CDK2/CycE) of over 20 µM and an IC50 (HeLa) of 2000 nM.

`Cc1nsc(Nc2ccn3nccc3n2)c1C(=O)Nc1ccc(F)c(F)c1` [Example 57, N-(3,4-Difluorophenyl)-3-methyl-5-(pyrazolo[1,5-a]pyrimidin-5-ylamino)-1,2-thiazole-4-carboxamide] showed an IC50 (CDK2/CycE) of over 20 µM and an IC50 (HeLa) of 2900 nM.

For `CCNC(=O)c1csc(Nc2snc(C)c2C(=O)Nc2ccc(F)c(F)c2)n1` [Example 99, N-(3,4-Difluorophenyl)-5-{[4-(ethylcarbamoyl)-1,3-thiazol-2-yl]amino}-3-methyl-1,2-thiazole-4-carboxamide], the IC50 (CDK2/CycE) was over 20 µM and the IC50 (HeLa) was 3300 nM.

`Cc1nsc(Nc2cnc3ccccc3n2)c1C(=O)Nc1ccc(OC(C)C)nc1` [Example 122, N-(6-Isopropoxypyridin-3-yl)-3-methyl-5-(quinoxalin-2-ylamino)-1,2-thiazole-4-carboxamide] showed an IC50 (CDK2/CycE) of over 20 µM and an IC50 (HeLa) of 1800 nM.

`COC(=O)c1cncc(Nc2snc(C)c2C(=O)Nc2ccc(OC)nc2)n1` [Example 101, Methyl 6-({4-[(6-methoxypyridin-3-yl)carbamoyl]-3-methyl-1,2-thiazol-5-yl}amino)pyrazine-2-carboxylate] showed an IC50 (CDK2/CycE) of over 20 µM and an IC50 (HeLa) of 7200 nM.

In the case of `Cc1nsc(Nc2nc3c(C(F)(F)F)cccc3s2)c1C(=O)Nc1ccc(F)c(F)c1` [Example 51, N-(3,4-Difluorophenyl)-3-methyl-5-{[4-(trifluoromethyl)-1,3-benzothiazol-2-yl]-amino}-1,2-thiazole-4-carboxamide], the IC50 (CDK2/CycE) is reported as over 20 µM and the IC50 (HeLa) is reported as 570 nM.

`COc1ccc(NC(=O)c2c(C)nsc2Nc2cc(C#N)ccn2)cn1` [Example 25, 5-[(4-Cyanopyridin-2-yl)amino]-N-(6-methoxypyridin-3-yl)-3-methyl-1,2-thiazole-4-carboxamide] showed an IC50 (CDK2/CycE) of over 20 µM and an IC50 (HeLa) of over 10000 nM.

`CCc1ccccc1NC(=O)c1c(C)nsc1Nc1cnc2cccc(C)c2n1` [Example 33, N-(2-Ethylphenyl)-3-methyl-5-[(8-methylquinoxalin-2-yl)amino]-1,2-thiazole-4-carboxamide] was tested, and the IC50 (CDK2/CycE) was over 20 µM and the IC50 (HeLa) was 2200 nM.

`CCOC(=O)c1cnn2ccc(Nc3snc(C)c3C(=O)Nc3ccc(F)c(F)c3)nc12` [Example 55, Ethyl 5-({4-[(3,4-difluorophenyl)carbamoyl]-3-methyl-1,2-thiazol-5-yl}amino)-pyrazolo[1,5-a]pyrimidine-3-carboxylate] gave an IC50 (CDK2/CycE) of over 20 µM and an IC50 (HeLa) of 920 nM.

For `COc1ccc(Oc2ccc(NC(=O)c3c(C)nsc3Nc3cnc4ccccc4n3)cn2)cc1` [Example 116, N-[6-(4-Methoxyphenoxy)pyridin-3-yl]-3-methyl-5-(quinoxaline-2-ylamino)-1,2-thiazole-4-carboxamide], the IC50 (CDK2/CycE) was over 20 µM and the IC50 (HeLa) was 3200 nM.

For `Cc1nsc(Nc2ccc(C#N)cn2)c1C(=O)Nc1ccc(Cl)c(F)c1` [Example 52, N-(4-Chloro-3-fluorophenyl)-5-[(5-cyanopyridin-2-yl)amino]-3-methyl-1,2-thiazole-4-carboxamide], the IC50 (CDK2/CycE) was over 20 µM and the IC50 (HeLa) was 240 nM.
